Ten compounds from patent publication US20050197331A1, “Novel anti-inflammatory and analgesic heterocyclic amidines that inhibit nitrogen oxide (NO) production” (ROTTAPHARM SPA, priority 2004, published 2005) can be followed below.

What is called pIC50 is the negative decadic logarithm of the IC50, by convention in mol/L. Usually melting point stands for the temperature of the solid-liquid transition.

One data set relates to PGE2. The data set is described as follows: Inhibition of PGE2 formation in rabbit articular chondrocytes stimulated with IL-1β (RIA). Type of data set: cell-based. The note with it: for pIC50: Oryctolagus cuniculus, Chondrocyte. Here is the method: (§1) a) The inhibitory activity on the formation of NO measured as NO2^− (nitrite) and PGE2 was studied in vitro on culture media of rabbit articular chondrocytes stimulated with the cytokine IL-1β (1 ng/ml) for 48 hours. For the preparation of the chondrocytes, the method described by Berenbaum et al. [FEBS Letters 340, 51-55 (1994)] was followed. Briefly, fragments of cartilage removed aseptically from the articular heads of rabbit shoulder, hip and knee were finely ground and digested at 37° C. in hyaluronidase, trypsin and collagenase solutions, giving, after filtration through sterile gauze and centrifugation at 600×g and suitable dilution with 10% DMEM-FCS 10%, a concentration per well of about 1×10^5 cells. The cells were maintained under these conditions until confluent (about 15 days), the medium being replaced every 3 days. At this point, the test products dissolved in the medium were added to each sample and, after 20 minutes, 350 μl of IL-1β were added, to give a final concentration of 1 ng/ml. The stimulation lasted 48 hours at 37° C. (incubation in air/7% CO2). A nitrite assay was subsequently performed on the cell supernatant, as described by Green et al. [Anal. Biochem. 126, 131-138 (1982)], and of PGE2 by RIA assay. The results obtained are shown in Table 3, in which is given, for a number of the compounds that are the subject of the invention and that are already illustrated in Table 1, the IC50, i.e. the concentration (micromolar) of antagonist capable of inhibiting the formation of nitrites and PGE2 by 50% relative to the control group, i.e. relative to the cells stimulated with IL-1β but without addition of antagonists.

For data set [1], the system named is rabbit articular chondrocytes. The data set is described as follows: Cellular toxicity on rabbit articular chondrocytes. Type of data set: cell-based. Conditions: noted beside IN in Table 3. As for the experimental part:
as §1

The subject of data set [2] is formation of NO measured as NO2^− (nitrite). Briefly: Inhibition of NO (nitrite) formation in rabbit articular chondrocytes stimulated with IL-1β. Type of data set: cell-based. The note with it: Oryctolagus cuniculus, Chondrocyte. As for the experimental part: as §1
A further data set concerns IL-6. Briefly: Inhibition of IL-6 expression (mRNA) in SW 1353 cells stimulated with IL-1β, Real Time PCR. Type of data set: cell-based. Conditions: Homo sapiens, SW1353; SW 1353 cells stimulated for 6 hours with IL-1β. The text has this: In practice, the RNA extracted from the cells was back-transcribed to c-DNA by means of a thermocycler (BioRad—“iCycler”) and subsequently amplified via the Real Time PCR technique using a probe and a primer specific for IL-6, from the company Applied Biosystem, and the thermocycler 7000 Sequence Detection System (Applied Biosystem).
The capacity […] may be considered as large, since the increase in the expression of this cytokine is associated with the physiopathology of various human diseases, for instance Crohn's disease, as described previously.
(Quantitative PCR measures a nucleic acid by following its amplification.)

The subject of data set [3] is rat paw injected with Zymosan. The data set is described as follows: Zymosan-induced paw oedema in rats. Type of data set: in vivo. The note with it: for anti-inflammatory and anti-hyperalgesic action (in words): Zymosan, administered orally, L-NAME up to maximum dose 50 mg/kg; for Anti-inflammatory activity (oedema) ED30 / Mean (Oedema + Analgesia) ED30: os, 0-6 hours; for Anti-inflammatory activity (oedema) ED30: dose reducing volume increase by 30%; for Mean (Oedema + Analgesia) ED30: mean of oedema and analgesia ED30. Here is the method: (§2) This is a phlogogenic agent, consisting of a protein-glycoside complex, extracted from the cell walls of raw yeast, which is capable of inducing rapid degranulation of neutrophils, an increase in the production of TNF-α, interleukin-1 (IL-1), IL-6 and stimulation of NO generation by monocytes and macrophages (ZymosaN:Merck Index XIII ed. No. 10250, p. 1818).
(§3) The experiments consisted of sub-plantar intradermal injection into the animal of 4 mg of Zymosan suspended in 100 μl of sterile physiological solution, while the test compounds were administered orally 30 minutes before injection of the phlogogenic agent.
(§4) Measurement of the inflammation of the injected paw and of the consequent hyperalgesic effects was performed 2, 4 and 6 hours after the administration of Zymosan. The oedema was evaluated as the increase in volume of the injected paw within the period 0-6 hours, relative to the initial value of the volume of the paw, i.e. before the injection of Zymosan (basal value).
The measurements of the variation of the volume of the paw were recorded using a hydroplethysmometer (Mod. 7150, Basile, Italy), which consists of two plastic cuvettes containing a surfactant liquid, the larger one being used for immersion of the paw, connected to the smaller one which contains a transducer capable of recording small displacements of volume of the liquid used for the measurement. The paw is immersed in the cuvettes up to the tibiotarsal joint. The volume of liquid displaced by the paw indicates the magnitude of the inflammation.
For each test compound, at least three doses were used (generally 10, 20 and 40 mg/kg) with at least five animals per group×dose, so as to be able to calculate an ED30, i.e. the dose in mg/kg capable of reducing by 30% the Zymosan-induced volume increase, relative to the group of control animals, i.e. animals injected only with the phlogogenic agent and treated orally with distilled water.

Data set [4] concerns rat paw injected with Zymosan. The data set is described as follows: Zymosan-induced mechanical hyperalgesia in rats (Randall-Selitto). Type of data set: in vivo. The note with it: os, 0-6 hours, dose increasing pain threshold by 30%. As for the experimental part: as §2, §3, §4
The hyperalgesia induced by the intradermal administration of Zymosan was evaluated on these animals and at the same times described previously for the evaluation of the oedema, using the Randall-Selitto method [Arch. Int. Pharmacodyn. 111, 409 (1957)].
When the animal makes a noise following the pain stimulus, the operator blocks the punch and records the force, expressed in grams, which was applied to the paw (the cut-off value is 500 grams). The difference in the meal chanical pain threshold between the basal value (generally about 230-250 grams) and that recorded at the indicated times after injection of the phlogogenic agent, generally 130-140 g for the control animals 6 hours after injection of the phlogogenic agent, is defined as mechanical hyperalgesia. In this case also, an ED30 was calculated, i.e. the dose in mg/kg capable of increasing the pain threshold by 30% (meal chanical hyperalgesia) in the animals treated with the test compounds relative to the group of control animals.

Where [5] appears, read: rabbit articular chondrocytes, IL-1β 1 ng/ml, 48 hours, RIA, read-out: Inhibition % IC50 PGE2.
Setting [6] is: rabbit articular chondrocytes, IL-1β 1 ng/ml, 48 hours, RIA.
[7] abbreviates: rabbit articular chondrocytes, IL-1β 1 ng/ml, 48 hours, nitrite in supernatant, read-out: Inhibition % IC50 NO.
Where [8] appears, read: rabbit articular chondrocytes stimulated with IL-1β, read-out: IC50, formation of PGE2.

Structures are written as SMILES. pIC50: −log10 of the molar value. Read-outs that look alike come from different tables or passages of the source.

`CC(=N)Nc1ccc2nc(-c3ccc(Cl)cc3)sc2c1` [Compound 3, N-[2-(4-chlorophenyl)benzothiazol-6-yl]acetamidine] yielded a melting point of 212.2 to 213.5 °C. Besides, the negative-log IC50 (pIC50) in the data set on PGE2 (setting [5]) is 5.72. In data set [1], the “Tox = cellular toxicity (concentration)” value worked out at 30 µM.
As to `CC(=N)Nc1ccc2c(c1)cc(-c1ccccc1)n2C` [Compound 6, N-(1-methyl-2-phenyl-1H-indol-5-yl)acetamidine], the melting point lay within 184.6 to 185.8 °C. Besides, the “Inhibition % IC50 PGE2” value in the data set with PGE2 (setting [6]) is given as “IN (IN = <25% inhibitory activity at 30 × 10^−6M)”. Also, the “Tox = cellular toxicity (concentration)” value in data set [1] was found to be 30 µM.
As to `CC(=N)Nc1ccc2nc(-c3ccccc3)ccc2c1` [Compound 8, N-(2-phenylquinol-6-yl)acetamidine], the melting point lay in the range of 143 to 144.4 °C. For the same compound, in data set [2] (setting [7]), the pIC50 is 4.32. For the same compound, the pIC50 in the data set with PGE2 (setting [5]) was 5.64. Moreover, the negative logarithm of the IC50 (pIC50) with IL-6 was 5.22 to 5.82. Besides, in data set [3], the “anti-inflammatory and anti-hyperalgesic action (in words)” value is “powerful anti-inflammatory and anti-hyperalgesic action”; the “Anti-inflammatory activity (oedema) ED30” value worked out at 19.8 mg/kg; the “Mean (Oedema + Analgesia) ED30” value is 15.8 mg/kg. Also, the “Analgesic activity (mechanical anti-hyperalgesia) ED30” value (from here on “Analgesic activity”) in data set [4] worked out at 11.8 mg/kg.
For the compound `CC(=N)Nc1ccc2sc(-c3ccccc3)nc2c1` [Compound 9, N-(2-phenylbenzothiazol-5-yl)acetamidine], the melting point is 177 to 178 °C. Moreover, in data set [2] (setting [7]), the pIC50 was 4.74. Besides, in the data set with PGE2 (setting [5]), the pIC50 was 5.38. Also, in the data set with IL-6, the pIC50 is 5.22 to 5.82. Besides, in data set [3], the “anti-inflammatory and anti-hyperalgesic action (in words)” value is “powerful anti-inflammatory and anti-hyperalgesic action”; the “Anti-inflammatory activity (oedema) ED30” value came out at 33.9 mg/kg; the “Mean (Oedema + Analgesia) ED30” value is 32.6 mg/kg. Further, the “Analgesic activity” value in data set [4] came to 31.3 mg/kg.
In the case of `COc1ccccc1-c1nc2cc(NC(C)=N)ccc2s1` [Compound 10, N-[2-(2-methoxyphenyl)benzothiazol-5-yl]acetamidine], the melting point was 163 to 165 °C. In the data set on PGE2 (setting [5]), the pIC50 is 5.23. For the same compound, the “Tox = cellular toxicity (concentration)” value in data set [1] came out at 100 µM.
`COc1ccc(-c2nc3cc(NC(C)=N)ccc3s2)cc1` [Compound 15, N-[2-(4-methoxyphenyl)benzothiazol-5-yl]acetamidine] gave a melting point of 203 to 204.7 °C. Further, the pIC50 in the data set with PGE2 (setting [5]) is 5.13. Moreover, the “Tox = cellular toxicity (concentration)” value in data set [1] amounted to 30 µM.
Take `COc1ccc(-c2nc3cc(NC(C)=N)ccc3s2)c(OC)c1` [Compound 16, N-[2-(2,4-dimethoxyphenyl)benzothiazol-5-yl]acetamidine]: the melting point was 156.4 to 158.3 °C. The “Inhibition % IC50 PGE2” value in the data set with PGE2 (setting [6]) is on record as “IN (IN = <25% inhibitory activity at 30 × 10^−6M)”. The “Tox = cellular toxicity (concentration)” value in data set [1] is 30 µM.
As to `COc1cccc(-c2nc3cc(NC(C)=N)ccc3s2)c1` [Compound 17, N-[2-(3-methoxyphenyl)benzothiazol-5-yl]acetamidine], the melting point was 141.6 to 145.6 °C. Also, in the data set with PGE2 (setting [5]), the pIC50 was 5.89. Besides, the “Tox = cellular toxicity (concentration)” value in data set [1] amounted to 30 µM.
The compound `CC(=N)Nc1ccc2oc(-c3ccccc3)cc2c1` [Compound 28, N-(2-phenylbenzofuran-5-yl)acetamidine] gave a melting point of 204.8 to 205.9 °C. Besides, in data set [2] (rabbit articular chondrocytes stimulated with IL-1β, read-out: IC50, production of NO), the negative logarithm of the IC50 (pIC50) was 5.10 to 5.52. In data set [2] (setting [7]), the negative-log IC50 (pIC50) is 5.11. In the data set on PGE2 (setting [8]), the pIC50 was 6.10 to 6.52. In the data set with PGE2 (setting [5]), the pIC50 was 6.30. Further, in the data set with IL-6, the pIC50 is 5.22 to 5.82. Also, in data set [3], the “anti-inflammatory and anti-hyperalgesic action (in words)” value was “powerful anti-inflammatory and anti-hyperalgesic action”; the “Anti-inflammatory activity (oedema) ED30” value is on record as 20.8 mg/kg; the “Mean (Oedema + Analgesia) ED30” value was determined as 22.6 mg/kg. Moreover, the “Analgesic activity” value in data set [4] was 24.4 mg/kg.
`CC(=N)Nc1ccc2oc(-c3ccc(Cl)cc3)nc2c1` [Compound 30, N-[2-(4-chlorophenyl)benzoxazol-5-yl]acetamidine] registered a melting point of 183.6 to 185.1 °C. Also, the negative logarithm of the IC50 (pIC50) in the data set on PGE2 (setting [8]) was 6.10 to 6.52. The pIC50 in the data set on PGE2 (setting [5]) is 6.52. Further, the “Tox = cellular toxicity (concentration)” value in data set [1] worked out at 30 µM.
